Test results: US20190125785A1, “HYPOTHERMAL INHALATION GAS COMPOSITION” (MONATOMICS TECHNOLOGY, priority 2016, published 2019)

Assay: rectal body temperature of rats after 3 hours in an enclosure supplied with a 22% oxygen / 78% helium, xenon or argon mixture at different temperatures
Format: in vivo, rat
Conditions: comparison of FIGS. 1 and 2
From the text: The graph of FIG. 1, which represents the experimental body temperature data Tc collected on rats as a function of the inhalation temperature Ti of a helium-oxygen mixture (curve C1) or of a xenon-oxygen mixture (curve C2), makes it possible to determine the proportions of the gas composition to be complied with in order to obtain a hypothermal gas mixture, depending on the inhalation temperature. In a more detailed manner, curves C1 and C2 correspond to regression lines obtained based on said experimental data Pi, several examples of which have been plotted in FIG. 1.
The experimental data were obtained as follows: The rats were placed for 3 hours in a closed enclosure supplied with a continuous flow of a gas mixture containing 22% oxygen (O2) and 78% helium, xenon or argon (He, Xe or Ar). This gas mixture was administered at different temperatures. The flow of the gas mixture was 10 mL/min and made it possible to maintain the carbon dioxide (CO2) concentration below 0.03% and the humidity at around 60% to 70%. […] At the end of the 3 hours of exposure, the rectal body temperature of the rats was measured for each administration temperature.
The inhalation temperature Ti can be between 16° C. and 27° C., for example.

[Ar] [Argon (Ar), Argon]
hypothermal properties (slope of curve C3 compared with curve C2): lower hyperthermal properties than xenon
